Nine molecules from ChEMBL document CHEMBL1201862, “PubChem BioAssay data set” (2004) can be followed below.

Test systems include RPMI-8226; COLO 205; CCRF-CEM; NCI-H460; HT-29; OVCAR-4; OVCAR-3; UACC-257; A549; U-251; NCI-H226; HL-60; HOP-92; A498; SW-620; SK-MEL-5; KM-20L2; HCC 2998; CAKI-1; MCF7.
Common to all, as to assay: NCI tumour cell line growth inhibition, 48 h

Structures are written as SMILES.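 Cultured in 96-well plates, cells were exposed to test compound for 48 hours across five concentrations. GI50 = concentration required for 50% inhibition of growth.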 Active and inactive are the calls of the source. Rule as the data show it: active = GI50 up to about 1.1 µM and inactive = higher.

With `COc1ccc([C@@H]2OC(=O)C3C2C(=O)O[C@H]3c2ccc(OC)c(OC)c2)cc1OC` (stereo not given in full), the GI50 in the experiment with RPMI-8226, in the experiment on COLO 205, in the experiment on CCRF-CEM, with NCI-H460, in the experiment on HT-29 and in the experiment with OVCAR-4 was > 100 µM (inactive) each time. For the same molecule, the GI50 with OVCAR-3, in the experiment with UACC-257, with A549, in the experiment with U-251, with NCI-H226 and with HL-60 was > 100 µM (inactive) in each case. For the same molecule, the GI50 with HOP-92, in the experiment on A498, in the experiment on SW-620, with SK-MEL-5, with KM-20L2 and in the experiment on HCC 2998 was > 100 µM (inactive) each time.
With `Cc1ccc(C)c(N2C(=O)C(=O)C(c3nc4ccccc4s3)C(=O)C2=O)c1`, the GI50 in the experiment with RPMI-8226, with CAKI-1, with COLO 205, in the experiment on CCRF-CEM, with NCI-H460 and in the experiment on HT-29 was > 100 µM (inactive) throughout. The GI50 is > 100 µM (inactive) with OVCAR-4; > 100 µM (inactive) with OVCAR-3; > 100 µM (inactive) in the experiment on UACC-257; > 100 µM (inactive) with A549; 83.8 µM (inactive) with U-251; > 100 µM (inactive) with NCI-H226. Also, the GI50 with HL-60, with HOP-92, with A498, with SW-620, in the experiment with SK-MEL-5 and in the experiment on KM-20L2 was > 100 µM (inactive) throughout. In addition, the GI50 in the experiment with HCC 2998 is > 100 µM (inactive).
For `COc1cc(C2C(C(=O)Nc3ccc([N+](=O)[O-])cc3)=C(C)NC(C)=C2C(=O)Nc2ccc([N+](=O)[O-])cc2)ccc1O`, the GI50 in the experiment on RPMI-8226 was 24.3 µM (inactive); with CAKI-1, 31 µM (inactive); in the experiment on COLO 205, 16.4 µM (inactive); with CCRF-CEM, 30.3 µM (inactive); with NCI-H460 it was 23.3 µM (inactive); in the experiment on HT-29, 19.4 µM (inactive). For the same molecule, the GI50 was 27 µM (inactive) in the experiment on OVCAR-4; 22.7 µM (inactive) in the experiment on OVCAR-3; 24.2 µM (inactive) with UACC-257; 37.6 µM (inactive) in the experiment with A549; 16.8 µM (inactive) in the experiment on U-251; 24.2 µM (inactive) in the experiment with NCI-H226. Also, the GI50 in the experiment with HL-60 was 0.515 µM (active); in the experiment with HOP-92, 16.4 µM (inactive); with A498 it was 36.7 µM (inactive); with SW-620, 21.6 µM (inactive); with SK-MEL-5, 31.8 µM (inactive); in the experiment on KM-20L2, 18.5 µM (inactive). Further, the GI50 in the experiment on HCC 2998 is 18.4 µM (inactive).
As for `O=C(Nc1nc2ncn(CCOC(=O)c3ccccc3)c2c(=O)[nH]1)c1ccccc1`, the GI50 was 6.1 µM (inactive) with RPMI-8226; 4.4 µM (inactive) with MCF7; 20.7 µM (inactive) with CAKI-1; 8.47 µM (inactive) in the experiment with COLO 205; 9.71 µM (inactive) with CCRF-CEM; 8.43 µM (inactive) in the experiment on NCI-H460. The GI50 in the experiment on HT-29 was 3.68 µM (inactive); with OVCAR-3, 29.5 µM (inactive); in the experiment with UACC-257 it was > 95.7 µM (inactive); with A549 it was 8.09 µM (inactive); in the experiment with U-251 it was 7.24 µM (inactive); with NCI-H226 it was 28.4 µM (inactive). The GI50 in the experiment with HL-60 is 2.59 µM (inactive); in the experiment with HOP-92, 25.6 µM (inactive); in the experiment on A498, > 100 µM (inactive); in the experiment on SW-620, 4.98 µM (inactive); with SK-MEL-5, 5.51 µM (inactive); with KM-20L2, 6.9 µM (inactive). For the same molecule, in the experiment on HCC 2998, the GI50 was 97.9 µM (inactive).
Take `CC(=O)N1C/C(=C\c2ccc(N(C)C)cc2)C(=O)/C(=C/c2ccc(N(C)C)cc2)C1`: the GI50 in the experiment with RPMI-8226 was > 100 µM (inactive); in the experiment with CAKI-1, 41.1 µM (inactive); with COLO 205 it was > 10 µM (inactive); in the experiment with CCRF-CEM, 46.9 µM (inactive); with HT-29, 36.6 µM (inactive); in the experiment with OVCAR-4 it was > 100 µM (inactive). The GI50 in the experiment on OVCAR-3 was 20.4 µM (inactive); in the experiment on UACC-257 it was 47.4 µM (inactive); in the experiment on A549, > 100 µM (inactive); with U-251, 31.1 µM (inactive); with NCI-H226, 57.9 µM (inactive); in the experiment on HL-60 it was 29.9 µM (inactive). The GI50 in the experiment with HOP-92 is > 100 µM (inactive); with A498, 33.5 µM (inactive); with SW-620 it was 41.5 µM (inactive); with SK-MEL-5, 54.2 µM (inactive); with KM-20L2, 28.7 µM (inactive); with HCC 2998 it was 58.2 µM (inactive).
On to `N#C/C(=C\c1cc2ccccc2c2ccccc12)c1ccccc1`, for which the GI50 with RPMI-8226 was 6.59 µM (inactive); in the experiment on CAKI-1, 7.76 µM (inactive); with COLO 205, 3.43 µM (inactive); in the experiment on CCRF-CEM, 3.59 µM (inactive); with NCI-H460 it was 4.67 µM (inactive); with HT-29, 4.45 µM (inactive). The GI50 was 11.2 µM (inactive) in the experiment with OVCAR-4; 3.45 µM (inactive) in the experiment on OVCAR-3; 9.62 µM (inactive) with UACC-257; 7.46 µM (inactive) in the experiment on A549; 5.78 µM (inactive) in the experiment on U-251; 43.8 µM (inactive) in the experiment with NCI-H226. In addition, the GI50 is 3.04 µM (inactive) with HL-60; > 37.6 µM (inactive) in the experiment on HOP-92; 9.18 µM (inactive) in the experiment on A498; 4.65 µM (inactive) in the experiment with SW-620; 5.38 µM (inactive) in the experiment on SK-MEL-5; 3.9 µM (inactive) in the experiment with KM-20L2. In addition, the GI50 in the experiment on HCC 2998 is 11 µM (inactive).
On to `Brc1ccc(/C=N/C23CC4CC(CC(C4)C2)C3)cc1`, for which the GI50 in the experiment with RPMI-8226, in the experiment with CAKI-1, with COLO 205, in the experiment on CCRF-CEM, in the experiment with NCI-H460 and in the experiment with HT-29 was > 100 µM (inactive) each time. Moreover, the GI50 with OVCAR-4, in the experiment with OVCAR-3, in the experiment with UACC-257, with A549, with U-251 and in the experiment with NCI-H226 was > 100 µM (inactive) throughout. Besides, the GI50 in the experiment on HL-60, in the experiment with HOP-92, with A498, with SW-620, with SK-MEL-5 and in the experiment on KM-20L2 was > 100 µM (inactive) each time. Moreover, in the experiment on HCC 2998, the GI50 is > 100 µM (inactive).
Turning to `Cc1cc(NC(=O)NC(=O)c2ccccc2N(C)C)ccc1Oc1ncc(Br)cn1`, the GI50 in the experiment on RPMI-8226 is 0.451 µM (active); with MCF7, 0.249 µM (active); in the experiment on COLO 205 it was 0.78 µM (active); in the experiment with CCRF-CEM, 0.237 µM (active); in the experiment with NCI-H460 it was 0.403 µM (active); with HT-29, 0.305 µM (active). Further, the GI50 in the experiment on OVCAR-4 is 6.68 µM (inactive); in the experiment on OVCAR-3 it was 0.29 µM (active); with UACC-257, 0.41 µM (active); in the experiment with A549, 0.705 µM (active); in the experiment with U-251 it was 0.497 µM (active); with NCI-H226, 9.27 µM (inactive). The GI50 with HL-60 was 0.073 µM (active); with HOP-92 it was 1.3 µM (inactive); in the experiment on A498, 0.29 µM (active); with SW-620 it was 0.301 µM (active); in the experiment with SK-MEL-5, 0.179 µM (active); in the experiment with KM-20L2, 0.284 µM (active). Also, the GI50 with HCC 2998 is 0.53 µM (active).
Regarding `N#C/C(=C\c1c[nH]c2ccccc12)C(=O)c1ccc(O)c(O)c1`, the GI50 in the experiment on RPMI-8226 was 15.4 µM (inactive); in the experiment on MCF7 it was 12 µM (inactive); in the experiment with CAKI-1 it was 41.5 µM (inactive); in the experiment with COLO 205, 32.7 µM (inactive); with CCRF-CEM, 5.87 µM (inactive); in the experiment on NCI-H460, 24.5 µM (inactive). Moreover, the GI50 is 28 µM (inactive) in the experiment with HT-29; 27.2 µM (inactive) in the experiment with OVCAR-4; 3.33 µM (inactive) in the experiment with OVCAR-3; 50.7 µM (inactive) in the experiment on UACC-257; 26.1 µM (inactive) in the experiment with A549; 20.4 µM (inactive) in the experiment with U-251. The GI50 in the experiment with NCI-H226 is 47.4 µM (inactive); with HL-60, 13.2 µM (inactive); in the experiment on HOP-92 it was 32.1 µM (inactive); with A498, 41.6 µM (inactive); in the experiment on SW-620, 32.7 µM (inactive); in the experiment on SK-MEL-5 it was 35.5 µM (inactive). Moreover, the GI50 was 55.5 µM (inactive) in the experiment on KM-20L2 and 32.5 µM (inactive) in the experiment on HCC 2998.
